Experimental data as given in patent US5696151A, “Compounds useful for the inhibition of the replication of HIV-1 and HIV-1 mutants” (priority 1995, dated 1997).
Values after ≈ are worked out from the molar mass of the structure shown.

Columns and labels:
Assay type in all cases: cell-based
[1] = test system: HIV-1/106-Ala; test: Inhibition of HIV-1 induced syncytium formation in CEM cells, RT mutant 106-Ala; conditions: Human immunodeficiency virus 1, CCRF-CEM, 96 h, Table 2B, day 4, averages of 2 to 3 independent experiments, read-out: Antiviral Activity of Comparative Compounds EC50, 106-Ala
Outline: (§1)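 Mutant strains were selected in culture for resistance to NNRTIs such as TSAO-m^3T, pyridinone L-697,661 or HEPT. Antiviral effect is inhibition of syncytium formation in infected CEM cells (~100 CCID50), assessed microscopically at day 4.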

[2] = test system: HIV-1/103-Asn; test: Inhibition of HIV-1 induced syncytium formation in CEM cells, RT mutant 103-Asn; conditions: Human immunodeficiency virus 1, CCRF-CEM, 96 h, Table 2B, day 4, averages of 2 to 3 independent experiments, read-out: Antiviral Activity of Comparative Compounds EC50, 103-Asn
From the text: (§2) CEM cells were obtained from the American Tissue Cell Culture Collection (Rockville, Md.). HIV-1(IIIB) was originally obtained from the culture supernatant of persistently HIV-1-infected H9 cells and was provided by R. C. Gallo and M. Popovic (National Cancer Institute, National Institutes of Health, Bethesda, Md.). […] 67: 5353-5359 (1993); HIV-1/Lys-138 ("Lys-138") was selected for resistance against TSAO-m^3T as described in Balzarini et al, Virology 192: 246-253 (1993) and Balzarini et al, Proc. Nat. Acad. Sci. USA 90: 6952-6956 (1993); HIV-1/181-Cys ("181-Cys") was selected for resistance against pyridinone L-697,661 as described in Balzarini et al, Virology 192: 246-253 (1993); and HIV-1/188-His ("188-His") was selected for resistance against HEPT as described in Balzarini et al, Mol. Pharmocol. 44: 694-701 (1993). 188-His was then further converted to HIV-1/188-Leu "188-Leu") upon further passage in cell culture in the absence of the HEPT.
(§3) CEM cells were suspended at ≈300,000 cells per ml of culture medium and infected with approximately 100 CCID50 (CCID50 being the 50% cell culture infective dose) of HIV-1(IIIB) or one of the HIV-1 RT mutant strains described above. Then 100 μl of the infected cell suspensions was added to 200 μl microtiter plate wells containing 100 μl of appropriate serial (5-fold) dilutions of the test compounds. The inhibitory effect of the test compounds on HIV-1 induced syncytium formation in CEM cells was examined microscopically on day 4 post infection.

[3] = test system: HIV-1/100-Ile; test: Inhibition of HIV-1 induced syncytium formation in CEM cells, RT mutant 100-Ile; conditions: Human immunodeficiency virus 1, CCRF-CEM, 96 h, Table 2B, day 4, averages of 2 to 3 independent experiments, read-out: Antiviral Activity of Comparative Compounds EC50, 100-Ile
Outline: as §1

[4] = test system: HIV-1/Lys-138; test: Inhibition of HIV-1 induced syncytium formation in CEM cells, RT mutant 138-Lys; conditions: Human immunodeficiency virus 1, CCRF-CEM, 96 h, Table 2B, day 4, averages of 2 to 3 independent experiments, read-out: Antiviral Activity of Comparative Compounds EC50, 138-Lys
Outline: as §1

[5] = in vitro; conditions: human, cem cells, CC50 (50% cytostatic concentration), Table 2B; CEM cell proliferation; averages of 2 to 3 independent experiments
Outline: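 Value is the 50% cytostatic concentration, the compound concentration that inhibits CEM cell proliferation by 50%. HIV-1(IIIB) and NNRTI-resistant variants selected in culture (Lys-138, 181-Cys, 188-His, 188-Leu) were used alongside.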

[6] = test system: HIV-1(IIIB); test: Inhibition of HIV-1 induced syncytium formation in CEM cells, wild type; conditions: Human immunodeficiency virus 1, IIIB, CCRF-CEM, 96 h, Table 2B, WT = HIV-1(IIIB), day 4, averages of 2 to 3 independent experiments, read-out: Antiviral Activity of Comparative Compounds EC50, WT
Outline: as §1

[7] = test system: HIV-1/188-Leu; test: Inhibition of HIV-1 induced syncytium formation in CEM cells, RT mutant 188-Leu; conditions: Human immunodeficiency virus 1, CCRF-CEM, 96 h, Table 2B, day 4, averages of 2 to 3 independent experiments, read-out: Antiviral Activity of Comparative Compounds EC50, 188-Leu
From the text: as §2, §3

[8] = test system: HIV-1/181-Cys; test: Inhibition of HIV-1 induced syncytium formation in CEM cells, RT mutant 181-Cys; conditions: Human immunodeficiency virus 1, CCRF-CEM, 96 h, Table 2B, day 4, averages of 2 to 3 independent experiments, read-out: Antiviral Activity of Comparative Compounds EC50, 181-Cys
Outline: as §1

Compound | EC50 [1] | EC50 [2] | EC50 [3] | EC50 [4] | CC50 [5] | EC50 [6] | EC50 [7] | EC50 [8]
Cc1occc1C(=O)Nc1ccc(Cl)c(OCCC(C)C)c1 [Compound 37] | 1.3 µg/mL (≈ 4.04 µM) | ≥ 2 µg/mL | ≥ 2 µg/mL | 1.25 µg/mL (≈ 3.88 µM) | 5 µg/mL (≈ 15.5 µM) | 0.16 µg/mL (≈ 0.497 µM) | > 2 µg/mL | 1.73 µg/mL (≈ 5.38 µM)
Cn1ccc(C(=S)Nc2ccc(Cl)c(C=NOC(C)(C)C)c2)c1 [Compound 11] | 0.1 µg/mL (≈ 0.286 µM) | 0.17 µg/mL (≈ 0.486 µM) | 0.13 µg/mL (≈ 0.372 µM) | 0.13 µg/mL (≈ 0.372 µM) | 13 µg/mL (≈ 37.2 µM) | 0.029 µg/mL (≈ 0.0829 µM) | > 2 µg/mL | 0.045 µg/mL (≈ 0.129 µM)
Cc1c(C(=S)Nc2ccc(Cl)c(C=NOC(C)(C)C)c2)ccn1C [Compound 10] | 0.23 µg/mL (≈ 0.632 µM) | 1.27 µg/mL (≈ 3.49 µM) | 0.65 µg/mL (≈ 1.79 µM) | 0.09 µg/mL (≈ 0.247 µM) | 6.5 µg/mL (≈ 17.9 µM) | 0.02 µg/mL (≈ 0.055 µM) | > 2 µg/mL | 0.033 µg/mL (≈ 0.0907 µM)
Cc1sccc1C(=S)Nc1ccc(Cl)c(SCC(=O)OC(C)(C)C)c1 [Compound 20] | 0.15 µg/mL (≈ 0.362 µM) | 0.44 µg/mL (≈ 1.06 µM) | 0.34 µg/mL (≈ 0.821 µM) | 0.43 µg/mL (≈ 1.04 µM) | 5.4 µg/mL (≈ 13 µM) | 0.13 µg/mL (≈ 0.314 µM) | > 2 µg/mL | 0.14 µg/mL (≈ 0.338 µM)
CON=Cc1cc(NC(=S)c2ccoc2C)ccc1OC [Compound 4] | 0.22 µg/mL (≈ 0.723 µM) | 0.4 µg/mL (≈ 1.31 µM) | 0.22 µg/mL (≈ 0.723 µM) | 0.039 µg/mL (≈ 0.128 µM) | > 100 µg/mL | 0.007 µg/mL (≈ 0.023 µM) | 0.93 µg/mL (≈ 3.06 µM) | 0.59 µg/mL (≈ 1.94 µM)
CCC1=C(C(=O)Nc2ccc(Cl)c(C(=O)OC3CCCCC3)c2)SCCO1 [Compound 13] | 0.17 µg/mL (≈ 0.415 µM) | 0.38 µg/mL (≈ 0.927 µM) | 0.26 µg/mL (≈ 0.634 µM) | 0.25 µg/mL (≈ 0.61 µM) | 11.4 µg/mL (≈ 27.8 µM) | 0.08 µg/mL (≈ 0.195 µM) | ≥ 2 µg/mL | 0.07 µg/mL (≈ 0.171 µM)
CC1=C(C(=S)Nc2ccc(Cl)c(C=NOC(C)(C)C)c2)CCCO1 [Compound 5] | 0.025 µg/mL (≈ 0.0681 µM) | 0.08 µg/mL (≈ 0.218 µM) | 0.055 µg/mL (≈ 0.15 µM) | 0.04 µg/mL (≈ 0.109 µM) | 10 µg/mL (≈ 27.3 µM) | 0.013 µg/mL (≈ 0.0354 µM) | > 2 µg/mL | 0.025 µg/mL (≈ 0.0681 µM)
CON=Cc1cc(NC(=O)c2ccoc2C)ccc1OC [Compound 47] | ≥ 10 µg/mL | ≥ 10 µg/mL | ≥ 10 µg/mL | ≥ 10 µg/mL | > 100 µg/mL | 0.23 µg/mL (≈ 0.798 µM) | ≥ 10 µg/mL | ≥ 10 µg/mL
CC=CCOc1cc(NC(=S)c2ccsc2C)ccc1Cl [Compound 1] | 0.023 µg/mL (≈ 0.0681 µM) | 0.048 µg/mL (≈ 0.142 µM) | 0.048 µg/mL (≈ 0.142 µM) | 0.018 µg/mL (≈ 0.0533 µM) | 5.9 µg/mL (≈ 17.5 µM) | 0.0055 µg/mL (≈ 0.0163 µM) | 0.65 µg/mL (≈ 1.92 µM) | 0.03 µg/mL (≈ 0.0888 µM)
CC=CCOc1cc(NC(=O)c2ccoc2C)ccc1Cl [Compound 40] | > 2 µg/mL | ≥ 2 µg/mL | 1.4 µg/mL (≈ 4.58 µM) | 1.2 µg/mL (≈ 3.92 µM) | 5.8 µg/mL (≈ 19 µM) | 0.24 µg/mL (≈ 0.785 µM) | > 2 µg/mL | > 2 µg/mL
CC=CCSc1cc(NC(=O)c2ccsc2C)ccc1Cl [Compound 34] | 0.28 µg/mL (≈ 0.829 µM) | 0.8 µg/mL (≈ 2.37 µM) | 0.65 µg/mL (≈ 1.92 µM) | 0.5 µg/mL (≈ 1.48 µM) | 4.8 µg/mL (≈ 14.2 µM) | 0.08 µg/mL (≈ 0.237 µM) | > 2 µg/mL | 1.2 µg/mL (≈ 3.55 µM)
CC=CCSc1cc(NC(=O)c2ccoc2C)ccc1Cl [Compound 35] | 0.8 µg/mL (≈ 2.49 µM) | 0.55 µg/mL (≈ 1.71 µM) | 1.5 µg/mL (≈ 4.66 µM) | 0.7 µg/mL (≈ 2.18 µM) | 5.9 µg/mL (≈ 18.3 µM) | 0.16 µg/mL (≈ 0.497 µM) | > 2 µg/mL | 1.6 µg/mL (≈ 4.97 µM)
Cc1sccc1C(=S)Nc1ccc(Cl)c(OCC(=O)OC(C)(C)C)c1 [Compound 14] | 0.1 µg/mL (≈ 0.251 µM) | 0.12 µg/mL (≈ 0.302 µM) | 0.16 µg/mL (≈ 0.402 µM) | 0.24 µg/mL (≈ 0.603 µM) | 2.1 µg/mL (≈ 5.28 µM) | 0.067 µg/mL (≈ 0.168 µM) | > 2 µg/mL | 0.087 µg/mL (≈ 0.219 µM)
